Data published in ChEMBL document CHEMBL5465560, “Selectivity Literature for EUbOPEN Chemogenomic Library” (2024).
Where a chain is given by its changes, count along the chain named.

Key:
Assay type in all cases: cell-based
Conditions in all cases: at 1 µM
[1] = tested on: T1, Receptor-type tyrosine-protein kinase FLT3 (Homo sapiens), P36888 [D835H]; test: (§1) Selectivity interaction (Ambit KINOMEscan and KiNATiv profiling in Jurkat cells) EUB0000090b FLT3
T1 sequence (whole entry): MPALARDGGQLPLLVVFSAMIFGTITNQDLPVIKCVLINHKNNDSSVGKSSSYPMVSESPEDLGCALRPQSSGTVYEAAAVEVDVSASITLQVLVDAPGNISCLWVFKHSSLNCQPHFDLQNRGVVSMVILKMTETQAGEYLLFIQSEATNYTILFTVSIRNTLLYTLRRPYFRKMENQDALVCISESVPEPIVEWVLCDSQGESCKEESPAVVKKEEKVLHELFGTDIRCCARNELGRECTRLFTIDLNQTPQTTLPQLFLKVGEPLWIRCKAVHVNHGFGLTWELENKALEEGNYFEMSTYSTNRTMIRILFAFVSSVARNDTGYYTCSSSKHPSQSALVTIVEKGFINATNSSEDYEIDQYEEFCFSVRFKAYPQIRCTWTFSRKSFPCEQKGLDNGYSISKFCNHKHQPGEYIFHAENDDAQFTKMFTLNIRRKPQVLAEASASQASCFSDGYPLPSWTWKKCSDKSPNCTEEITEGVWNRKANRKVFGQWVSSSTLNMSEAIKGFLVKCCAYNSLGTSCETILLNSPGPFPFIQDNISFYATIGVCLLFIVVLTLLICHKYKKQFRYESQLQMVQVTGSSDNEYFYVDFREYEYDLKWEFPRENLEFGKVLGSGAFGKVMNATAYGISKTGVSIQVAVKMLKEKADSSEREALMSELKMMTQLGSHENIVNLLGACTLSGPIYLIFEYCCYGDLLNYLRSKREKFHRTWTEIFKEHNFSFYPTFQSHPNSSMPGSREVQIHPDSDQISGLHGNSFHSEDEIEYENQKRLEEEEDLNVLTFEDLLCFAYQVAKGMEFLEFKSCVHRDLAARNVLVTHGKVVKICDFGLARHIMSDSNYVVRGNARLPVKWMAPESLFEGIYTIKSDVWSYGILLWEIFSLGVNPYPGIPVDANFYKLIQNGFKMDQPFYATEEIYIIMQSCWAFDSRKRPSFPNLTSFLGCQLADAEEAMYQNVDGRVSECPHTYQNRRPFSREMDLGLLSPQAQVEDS

[2] = tested on: T2, Receptor-type tyrosine-protein kinase FLT3 (Homo sapiens), P36888 [N841I]; test: as §1
T2 sequence (whole entry): T1 sequence (whole entry) with H835D, N841I

[3] = tested on: T3, Receptor-type tyrosine-protein kinase FLT3 (Homo sapiens), P36888 [R834Q]; test: as §1
T3 sequence (whole entry): T1 sequence (whole entry) with R834Q, H835D

Question: How did the % of control [1] turn out when `CN(C)C/C=C/C(=O)Nc1ccc(C(=O)N2CCCC(Nc3ncc(Cl)c(-c4c[nH]c5ccccc45)n3)C2)cc1` (stereo not drawn) was run?
Answer: The % of control was 64%.

Question: And the % of control [2]?
Answer: The % of control was 89%.

Question: And the % of control [3]?
Answer: The % of control was 92%.
